Assay [1] deals with T1, glutathione S-transferase (GST)-fused full-length human Syk protein (Homo sapiens, UniProt P43405).
T1 construct: (GST)-fused full-length human Syk protein; GST (glutathione S-transferase); purchased Carna Biosciences
Briefly: Syk enzyme assay. In kind it is biochemical. In a few lines:
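GST-tagged full-length human Syk (baculovirus) preincubated with compound 15 min at room temperature (pH 7.0, 10 mM MgCl2), then reacted 40 min with 0.4 μM biotinylated peptide substrate and 27 μM ATP (final). Phosphorylation read by HTRF (615/665 nm) after EDTA stop; IC50 reported.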

The test system of a further assay is THP-1 cells. Briefly: TNFα generation assay. The class given is cell-based, human. In a few lines:
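Secreted TNFα in supernatant quantified by ELISA or AlphaLISA after 7 h culture on human IgG-coated wells (10 μg/ml coating). Cells were IFN-γ-differentiated THP-1 (10 ng/ml, 2 days), exposed to compound for 30 min at room temperature before plating.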

[2] abbreviates: Syk enzyme assay, Test Example 1, read-out: IC50 of Syk-inhibitory activity.
Where [3] appears, read: Homo sapiens, THP-1, THP-1 cells, Table 22, read-out: IC50 in TNFα generation assay.

Read-outs that look alike come from different tables or passages of the source. A value given as a limit tells only on which side of the number the result lay.

Turning to `CC(C)C[C@H](CN)Nc1nc(Nc2cncc(-n3cccn3)c2)c(C(N)=O)cc1F` [Example 006-170, (R)-2-((5-(1H-pyrazol-1-yl)pyridin-3-yl)amino)-6-((1-amino-4-methylpentan-2-yl)amino)-5-fluoronicotinamide], the results for the IC50 (in assay [1] (setting [2]); with THP-1 cells (setting [3])) were below 10 nM and 65 to 130 nM, respectively.
Regarding `NC(=O)c1cc(F)c(N[C@@H]2CCCC[C@@H]2N)nc1Nc1cnc(-n2cccn2)c(Cl)c1` [Example 006-446, 6-(((1R,2S)-2-aminocyclohexyl)amino)-2-((5-chloro-6-(1H-pyrazol-1-yl)pyridin-3-yl)amino)-5-fluoronicotinamide], the IC50 is 10 to 50 nM in assay [1] (setting [2]) and 130 to 200 nM in the assay on THP-1 cells (setting [3]).
For `CC[C@@H](Nc1nc(Nc2ccc3c(c2)c(C)nn3CC)c(C(N)=O)cc1F)[C@H](C)N` [Example 006-525, 6-(((2S,3R)-2-aminopentan-3-yl)amino)-2-((1-ethyl-3-methyl-1H-indazol-5-yl)amino)-5-fluoronicotinamide], in that order: below 10 nM and 65 to 130 nM.
For the compound `CC(C)C[C@H](CN)Nc1nc(Nc2ccc3c(cnn3C)c2)c(C(N)=O)cc1F` [Example 006-142, (R)-6-((1-amino-4-methylpentan-2-yl)amino)-5-fluoro-2-((1-methyl-1H-indazol-5-yl)amino)nicotinamide], the IC50 in assay [1] (setting [2]) is below 10 nM; in the assay with THP-1 cells (setting [3]), below 65 nM.
Taken in the same sequence, the figures for `COc1cc(Nc2nc(N[C@H](C)[C@H](C)N)c(F)cc2C(N)=O)cc(OC)n1` (racemic) [Example 006-112, 6-(((2R,3S)-3-aminobutan-2-yl)amino)-2-((2,6-dimethoxypyridin-4-yl)amino)-5-fluoronicotinamide 6-(((2S,3R)-3-aminobutan-2-yl)amino)-2-((2,6-dimethoxypyridin-4-yl)amino)-5-fluoronicotinamide] were below 10 nM and 65 to 130 nM.
For `CCCC[C@H](CN)Nc1nc(Nc2ccc3c(cnn3CC)c2)c(C(N)=O)cc1F` [Example 006-323, (R)-6-((1-aminohexan-2-yl)amino)-2-((1-ethyl-1H-indazol-5-yl)amino)-5-fluoronicotinamide], in that order: below 10 nM and 65 to 130 nM.
For `CCCc1nn(CCF)c2ccc(Nc3nc(N[C@@H]4CCCC[C@@H]4N)c(F)cc3C(N)=O)cc12` [Example 006-459, 6-(((1R,2S)-2-aminocyclohexyl)amino)-5-fluoro-2-((1-(2-fluoroethyl)-3-propyl-1H-indazol-5-yl)amino)nicotinamide], in that order: below 10 nM and 65 to 130 nM.
As for `NC(=O)c1cc(F)c(N[C@@H]2CCCC[C@@H]2N)nc1Nc1cncc2c1cnn2-c1ccccc1` [Example 004-020], the IC50 in assay [1] (setting [2]) is below 10 nM; in the assay with THP-1 cells (setting [3]) it was 130 to 200 nM.
Taken in the same sequence, the figures for `Cc1ncc(Nc2nc(NC3CCCCC3N)c(F)cc2C(N)=O)cc1C1CC1` (stereo not drawn) [Example 002-118] were 10 to 50 nM and 130 to 200 nM.
For the compound `CCC[C@@H](Nc1nc(Nc2ccc3c(cnn3CCOC)c2)c(C(N)=O)cc1F)[C@@H](N)CC` [Example 006-400, 6-(((3S,4R)-3-aminoheptan-4-yl)amino)-5-fluoro-2-((1-(2-methoxyethyl)-1H-indazol-5-yl)amino)nicotinamide], the IC50 was below 10 nM in assay [1] (setting [2]) and below 65 nM in the assay with THP-1 cells (setting [3]).
As to `COc1cc(Nc2nc(N[C@@H]3CCCC[C@@H]3N)c(F)cc2C(N)=O)cc(OC)c1` (single isomer, unassigned) [Example 21, 6-(cis-2-aminocyclohexylamino)-2-(3,5-dimethoxyphenylamino)-5-fluoronicotinamide], the IC50 in assay [1] (read-out: Syk-inhibitory activity (IC50)) was at most 1000 nM; with THP-1 cells (Homo sapiens, THP-1, 7 h, IFN-γ-differentiated THP-1 cells on human IgG-coated plate, cultured 7 hours, read-out: TNFα generation inhibitory activity (IC50)), at most 200 nM.
On to `COc1cccc(-c2cncc(Nc3nc(N[C@@H](CN)CC(C)C)c(F)cc3C(N)=O)c2)c1` [Example 006-317, (R)-6-((1-amino-4-methylpentan-2-yl)amino)-5-fluoro-2-((5-(3-methoxyphenyl)pyridin-3-yl)amino)nicotinamide], for which the IC50 in assay [1] (setting [2]) is below 10 nM; in the assay with THP-1 cells (setting [3]), 130 to 200 nM.
For `NC(=O)c1cc(F)c(NC2CCCCC2N)nc1Nc1cncc(-n2cncn2)c1` (stereo not drawn) [Example 002-137], in that order: below 10 nM and 130 to 200 nM.
As for `CCC[C@@H](Nc1nc(Nc2ccnc(OCCOC)c2)c(C(N)=O)cc1F)[C@@H](N)CC` [Example 006-401, 6-(((3S,4R)-3-aminoheptan-4-yl)amino)-5-fluoro-2-((2-(2-methoxyethoxy)pyridin-4-yl)amino)nicotinamide], the IC50 is 10 to 50 nM in assay [1] (setting [2]) and 130 to 200 nM with THP-1 cells (setting [3]).
Take `CC[C@@H](Nc1nc(Nc2cncc(F)c2)c(C(N)=O)cc1F)[C@H](C)N` [Example 006-269, 6-(((2S,3R)-2-aminopentan-3-yl)amino)-5-fluoro-2-((5-fluoropyridin-3-yl)amino)nicotinamide]: the IC50 in assay [1] (setting [2]) lay within 10 to 50 nM; in the assay on THP-1 cells (setting [3]), 65 to 130 nM.
Regarding `Cc1nccc(Nc2nc(NC3CCCCC3N)c(F)cc2C(N)=O)c1F` (stereo not drawn) [Example 002-163], the IC50 in assay [1] (setting [2]) lay within 10 to 50 nM; with THP-1 cells (setting [3]), 130 to 200 nM.
In the case of `NC(=O)c1cc(F)c(N[C@@H]2CCCC[C@@H]2N)nc1Nc1cnc2c(N3CCOCC3)cccc2c1` [Example 004-033], the IC50 in assay [1] (setting [2]) was below 10 nM; in the assay on THP-1 cells (setting [3]) it was 130 to 200 nM.
Turning to `C[C@@H](N)[C@@H](C)Nc1nc(Nc2ccc3ncccc3c2)c(C(N)=O)cc1F` [Example 006-224, 6-(((2R,3R)-3-aminobutan-2-yl)amino)-5-fluoro-2-((quinolin-6-yl)amino)nicotinamide], the IC50 in assay [1] (setting [2]) is 10 to 50 nM; with THP-1 cells (setting [3]), below 65 nM.
For `CCOCCOCCn1cc2cc(Nc3nc(N[C@@H]4CCCC[C@@H]4N)c(F)cc3C(N)=O)ccc2n1` (relative stereo) [Example 004-095, 6-(cis-2-aminocyclohexylamino)-2-((2-(2-(2-ethoxyethoxy)ethyl)-2H-indazol-5-yl)amino)-5-fluoronicotinamide], in that order: below 10 nM and 130 to 200 nM.
Taken in the same sequence, the figures for `Cc1cc(Nc2nc(NC3CCCCC3N)c(F)cc2C(N)=O)cnc1C` (stereo not drawn) [Example 002-024] were below 10 nM and 130 to 200 nM.
As for `NC(=O)c1cc(F)c(N[C@@H]2CCCC[C@@H]2N)nc1Nc1cc(N)c2ncccc2c1` (relative stereo) [Example 41-1, 6-(cis-2-aminocyclohexylamino)-2-((8-aminoquinolin-6-yl)amino)-5-fluoronicotinamide], the IC50 in assay [1] (setting [2]) was below 10 nM; in the assay on THP-1 cells (setting [3]), 130 to 200 nM.
Turning to `CCC[C@@H](Nc1nc(Nc2cncc(C)c2)c(C(N)=O)cc1F)[C@H](C)N` [Example 006-312, 6-(((2S,3R)-2-aminohexan-3-yl)amino)-5-fluoro-2-((5-methylpyridin-3-yl)amino)nicotinamide], the IC50 in assay [1] (setting [2]) is below 10 nM; in the assay with THP-1 cells (setting [3]), 65 to 130 nM.
`NC(=O)c1cc(F)c(N[C@@H]2CCCC[C@@H]2N)nc1Nc1cncc(-c2ccco2)c1` (relative stereo) [Example 004-058]: the IC50 in assay [1] (setting [2]) was below 10 nM; in the assay with THP-1 cells (setting [3]) it was 65 to 130 nM.
For the compound `NC(=O)c1cc(F)c(NC2CCCCC2N)nc1Nc1ccnc(-c2cccc(F)c2F)c1` (stereo not drawn) [Example 002-144], the figures for the IC50 (in assay [1] (setting [2]); with THP-1 cells (setting [3])) were below 10 nM and 130 to 200 nM, respectively.
On to `CCn1nc(F)c2ccc(Nc3nc(NC4CCCCC4N)c(F)cc3C(N)=O)cc21` (stereo not drawn) [Example 002-199], for which the IC50 in assay [1] (setting [2]) is below 10 nM; with THP-1 cells (setting [3]), 130 to 200 nM.
`COc1ccc2cc(Nc3nc(N[C@@H]4CCCC[C@@H]4N)c(F)cc3C(N)=O)cnc2c1` [Example 006-172, 6-(((1R,2S)-2-aminocyclohexyl)amino)-5-fluoro-2-((7-methoxyquinolin-3-yl)amino)nicotinamide]: the IC50 is below 10 nM in assay [1] (setting [2]) and 65 to 130 nM in the assay on THP-1 cells (THP-1 cells, Table 22, read-out: IC50 in TNFα generation assay).
On to `CC[C@H](N)[C@@H](CC)Nc1nc(Nc2ccc3c(cnn3CC)c2)c(C(N)=O)cc1F` [Example 006-365, 6-(((3R,4S)-4-aminohexan-3-yl)amino)-2-((1-ethyl-1H-indazol-5-yl)amino)-5-fluoronicotinamide], for which the IC50 in assay [1] (setting [2]) was below 10 nM; in the assay with THP-1 cells (setting [3]), 65 to 130 nM.
Take `CCOc1cc(Nc2nc(N[C@H](C)[C@H](C)N)c(F)cc2C(N)=O)ccn1` (racemic) [Example 006-213, 6-(((2R,3S)-3-aminobutan-2-yl)amino)-2-((2-ethoxypyridin-4-yl)amino)-5-fluoronicotinamide 6-(((2S,3R)-3-aminobutan-2-yl)amino)-2-((2-ethoxypyridin-4-yl)amino)-5-fluoronicotinamide]: the IC50 in assay [1] (setting [2]) was below 10 nM; in the assay on THP-1 cells (setting [3]), 130 to 200 nM.
For `NC(=O)c1cc(F)c(N[C@@H]2CCCC[C@@H]2N)nc1Nc1ccnc(-n2nccn2)c1` (relative stereo) [Example 006-125, 2-((2-(2H-1,2,3-triazol-2-yl)pyridin-4-yl)amino)-6-((cis-2-aminocyclohexyl)amino)-5-fluoronicotinamide], in that order: below 10 nM and 65 to 130 nM.
For the compound `C[C@H](N)[C@@H](C)Nc1nc(Nc2cncc(Cl)c2)c(C(N)=O)cc1F` [Example 006-216, 6-(((2R,3S)-3-aminobutan-2-yl)amino)-2-((5-chloropyridin-3-yl)amino)-5-fluoronicotinamide], the IC50 lay in the range of 10 to 50 nM in assay [1] (setting [2]) and 65 to 130 nM in the assay on THP-1 cells (setting [3]).

Source of the values: patent US8895585B2, “Nicotinamide derivative or salt thereof” (FUJIFILM Corporation, priority 2010, dated 2014).
